Laboratory results: US9981950B2, “Triazoles as NR2B receptor inhibitors” (Janssen Pharmaceuticals, Inc., priority 2014, dated 2018)

Experiments:
hERG-receptor = hERG-receptor (Homo sapiens (Human), UniProt Q12809); assay: HERGBD: inhibition of specific 3H-Dofetilide binding to the hERG-receptor; settings: HEK cell membranes with human ERG, Hill-plot 2-parameter-model
Protocol: Inhibition of Specific Binding to the hERG-Receptor (HERGBD)
A HEK cell line with stable transfected human ERG receptor was used for the assay. The cells were grown adherently and maintained in DULBECCOS' MEM medium with 10% FBS, 1% non-essential amino acids, 1% Penicillin/Streptomycin and 400 μg/ml G418 (Calbiochem).
For binding assays and membrane preparations the cell culture medium was removed, cells were washed with PBS. Crude membranes for radioligand binding experiments were prepared by scraping the cells off the dishes in ice cold 20 mM HEPES/0.1 mM KCl/pH 7.2. The cell suspension was homogenized on ice (Ultra turrax, 3×20 sec.) and the homogenate was spun for 10 min (1° C., 1000 g, OPTIMA, SW28, 2800 U/min). The supernatant was than centrifuged for 40 min at 100000 g (1° C., OPTIMA, SW28, 23000 U/min). The membrane pellet was resuspended in 20 mM HEPES/0.1 mM KCl/pH 7.2, frozen and stored at −80° C.
After thawing on the day of the assay, the membrane suspension was diluted further with 20 mM HEPES/0.1 mM KCl/pH 7.2.
The incubation mixture of 200 μl contained 1.5 nmol/l 3H-Dofetilide, optimized amount of membrane preparation, 20 mM HEPES/0.1 mM KCl/(pH 7.2) and inhibitor in 1% DMSO. Nonspecific binding was estimated in the presence of […] Dofetilide. The samples were incubated for 90 min. at RT.
Binding was terminated by filtration of the incubated membrane preparations using Filtermat B (Pharmacia, Uppsala Sweden) and a Micro Cell Harvester (Skatron, Lier, Norway). The Filtermat B had been presoaked with 1% polyethylenimine and carefully washed with 0.05 M Tris/HCl-buffer pH=7.7 after the filtration to separate free and bound radioactivity. The filters were counted in a scintillation counter (Betaplate 1205, Berthold, Wildbad, Germany) in order to determine the specific binding of [^3H]-Dofetilide.
The optimal amount of membrane preparation in the assay was determined and optimized for each membrane preparation separately in front of using the membranes in compound testing.
For pipetting of the incubation mixture we routinely use the robot Biomek2000 (Fa. Beckman).

rat NR1/NR2B receptor = rat NR1/NR2B receptor (Rattus norvegicus (Rat), UniProt P35439+Q00960); assay: RRNR2BB: inhibition of specific binding to the rat NR1/NR2B receptor; settings: [3H]-Ifenprodil binding, rat brain membranes, Hill-plot 2-parameter-model
Chain of rat NR1/NR2B receptor (Q00960 27-1482, other chains not shown): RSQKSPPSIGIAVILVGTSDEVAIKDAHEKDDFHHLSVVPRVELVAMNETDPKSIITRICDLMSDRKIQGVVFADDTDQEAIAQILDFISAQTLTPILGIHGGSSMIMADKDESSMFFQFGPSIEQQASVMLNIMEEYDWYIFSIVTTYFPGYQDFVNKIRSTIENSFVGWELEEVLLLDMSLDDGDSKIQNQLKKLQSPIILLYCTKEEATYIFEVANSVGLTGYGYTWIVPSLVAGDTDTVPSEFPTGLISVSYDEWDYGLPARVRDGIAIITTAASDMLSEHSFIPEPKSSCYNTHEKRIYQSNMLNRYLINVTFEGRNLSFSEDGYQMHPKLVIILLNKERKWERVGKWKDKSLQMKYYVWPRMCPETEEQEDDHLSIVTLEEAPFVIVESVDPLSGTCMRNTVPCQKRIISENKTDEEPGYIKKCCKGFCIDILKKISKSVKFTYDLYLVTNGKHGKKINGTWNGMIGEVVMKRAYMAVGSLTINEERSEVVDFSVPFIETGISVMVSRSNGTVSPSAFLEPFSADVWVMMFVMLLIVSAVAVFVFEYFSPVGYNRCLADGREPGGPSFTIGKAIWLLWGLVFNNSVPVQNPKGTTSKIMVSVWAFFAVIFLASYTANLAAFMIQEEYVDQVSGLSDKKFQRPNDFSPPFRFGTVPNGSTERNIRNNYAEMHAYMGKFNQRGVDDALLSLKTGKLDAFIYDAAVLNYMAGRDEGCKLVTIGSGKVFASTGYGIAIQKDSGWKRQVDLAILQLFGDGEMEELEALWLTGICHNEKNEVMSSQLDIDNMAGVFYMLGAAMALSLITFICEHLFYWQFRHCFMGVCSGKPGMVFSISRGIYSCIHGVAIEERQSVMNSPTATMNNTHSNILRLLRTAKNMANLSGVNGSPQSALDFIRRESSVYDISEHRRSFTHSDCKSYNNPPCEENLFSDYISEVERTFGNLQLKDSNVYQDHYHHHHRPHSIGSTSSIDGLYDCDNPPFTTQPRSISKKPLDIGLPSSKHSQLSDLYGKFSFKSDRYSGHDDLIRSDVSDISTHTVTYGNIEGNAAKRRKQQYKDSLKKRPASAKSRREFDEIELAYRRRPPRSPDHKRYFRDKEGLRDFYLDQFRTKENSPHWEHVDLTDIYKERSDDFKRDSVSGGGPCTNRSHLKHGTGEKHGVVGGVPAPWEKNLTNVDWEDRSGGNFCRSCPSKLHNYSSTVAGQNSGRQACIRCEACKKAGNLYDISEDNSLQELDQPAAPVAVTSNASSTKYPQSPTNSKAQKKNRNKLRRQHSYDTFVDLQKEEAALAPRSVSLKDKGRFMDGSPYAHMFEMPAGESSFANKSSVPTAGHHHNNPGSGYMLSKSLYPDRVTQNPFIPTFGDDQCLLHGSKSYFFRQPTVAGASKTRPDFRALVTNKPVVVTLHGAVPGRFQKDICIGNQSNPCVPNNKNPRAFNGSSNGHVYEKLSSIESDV
Protocol: RRNR2BB—Inhibition of Specific Binding to the Rat NR1/NR2B Receptor
Male Wistar rats (180 to 200 g) were killed by suffocation in a CO2 chamber for two minutes. Whole brains without cerebellum were removed and dissected on ice, placed into closed vials and stored at −70° C.
Membrane fractions were prepared and tested using standard techniques. At the time of the assay, 1 g of the brains were placed into 25 ml of 50 mM Tris/10 mM EDTA buffer, pH=7.1, (25 vol. per g of original tissue) and was homogenized for 30 sec at 20000 U/min with an Ultraturrax T25 (Jahnke & Kunkel, IKA-Labortechnik, Staufen, Germany). The homogenate was centrifuged at 4° C. for 10 min at 48000 g (OPTIMA L-70, Beckman, Palo Alto, Calif. 94304, USA). The supernatant was discarded and the pellet was homogenized on ice for 30 sec at 20000 U/min with an Ultraturrax and again centrifuged at 48000 g for 30 minutes at 4° C. The resultant pellet was resuspended in 25 ml of 50 mM Tris/10 mM EDTA buffer, homogenized for 30 sec with an Ultraturrax, aliquoted, frozen at −70° C. and stored until use
After thawing on the day of the assay, a 5 ml membrane aliquote was centrifuged at 48000 g for 30 min at 4° C. The pellet was resuspended in 5 ml of 5 mM Tris/1 mM EDTA buffer, pH=7.4, homogenized for 30 sec at 20000 U/min with an Ultraturrax and centrifuged at 48000 g for 30 min at 4° C. This step was repeated twice. The final pellet was homogenized in 5 ml of 5 mM Tris/mM EDTA buffer at 4° C. with an Ultraturrax and used for the Ifenprodil-binding assay.
Nonspecific binding was estimated in the presence of 10 M CP101.606. The samples were incubated for 60 min. at 4° C.
Binding was terminated by filtration of the incubated membrane preparations using Filtermat B (Pharmacia, Uppsala Sweden) and a Micro Cell Harvester (Skatron, Lier, Norway). The Filtermat B had been presoaked with 1% polyethylenimine and carefully washed with […] Tris/HCl-buffer pH=7.7 after the filtration to separate free and bound radioactivity.
For pipetting of the incubation mixture the robot Biomek2000 (Fa. Beckman) was used.
The IC50 values in the tables below were determined using the Hill-plot, 2-parameter-model.

Chain of hERG-receptor (Q12809 whole entry): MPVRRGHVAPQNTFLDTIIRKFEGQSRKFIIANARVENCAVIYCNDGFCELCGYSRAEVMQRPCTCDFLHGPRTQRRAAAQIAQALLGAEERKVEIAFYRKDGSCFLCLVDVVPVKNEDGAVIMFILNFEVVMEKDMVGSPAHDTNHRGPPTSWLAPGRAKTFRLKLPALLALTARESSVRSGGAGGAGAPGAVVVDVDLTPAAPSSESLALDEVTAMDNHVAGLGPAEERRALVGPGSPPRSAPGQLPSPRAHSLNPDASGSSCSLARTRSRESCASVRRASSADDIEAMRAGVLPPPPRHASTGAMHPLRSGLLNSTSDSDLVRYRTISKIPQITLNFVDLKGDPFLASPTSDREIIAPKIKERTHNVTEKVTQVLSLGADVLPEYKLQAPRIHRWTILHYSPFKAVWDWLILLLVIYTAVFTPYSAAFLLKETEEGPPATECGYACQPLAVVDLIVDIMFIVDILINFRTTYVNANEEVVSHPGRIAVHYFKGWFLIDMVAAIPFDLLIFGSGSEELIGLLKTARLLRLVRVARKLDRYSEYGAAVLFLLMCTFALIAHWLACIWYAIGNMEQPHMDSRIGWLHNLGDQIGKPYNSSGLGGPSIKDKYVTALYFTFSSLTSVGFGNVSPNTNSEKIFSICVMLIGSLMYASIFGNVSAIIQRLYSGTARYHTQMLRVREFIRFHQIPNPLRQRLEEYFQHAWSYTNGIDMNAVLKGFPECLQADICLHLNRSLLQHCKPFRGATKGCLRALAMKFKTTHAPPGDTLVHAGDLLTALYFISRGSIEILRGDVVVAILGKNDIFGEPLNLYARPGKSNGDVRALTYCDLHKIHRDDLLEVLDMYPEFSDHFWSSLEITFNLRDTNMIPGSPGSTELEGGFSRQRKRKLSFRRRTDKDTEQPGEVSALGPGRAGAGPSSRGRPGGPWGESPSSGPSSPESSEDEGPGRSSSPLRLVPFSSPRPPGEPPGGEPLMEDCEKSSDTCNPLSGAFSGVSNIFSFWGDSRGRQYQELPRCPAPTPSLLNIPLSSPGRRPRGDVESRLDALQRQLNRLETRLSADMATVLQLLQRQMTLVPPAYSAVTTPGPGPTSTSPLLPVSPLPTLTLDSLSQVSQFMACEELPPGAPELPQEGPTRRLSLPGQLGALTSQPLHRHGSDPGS

IC50 (rat NR1/NR2B receptor) [µM] | Compound | IC50 (hERG-receptor) [µM]
> 10 | CCCc1ncn(Cc2cn(-c3ccc(Cl)cc3)nn2)n1 [Example 3, 1-(4-Chloro-phenyl)-4-(3-propyl-[1,2,4]triazol-1-ylmethyl)-1H-[1,2,3]triazole] | 0.305
> 10 | CC(C)c1ncn(Cc2cn(-c3ccc(Cl)cc3)nn2)n1 [Example 4, 1-(4-Chloro-phenyl)-4-(3-isopropyl-[1,2,4]triazol-1-ylmethyl)-1H-[1,2,3]triazole] | –
> 10 | CCc1ncn(Cc2cn(-c3ccc(Cl)cc3)nn2)n1 [Example 6, 1-(4-Chloro-phenyl)-4-(3-ethyl-[1,2,4]triazol-1-ylmethyl)-1H-[1,2,3]triazole] | 54.9
> 10 | Cc1ncn(Cc2cn(-c3ccc(Cl)cc3)nn2)n1 [Example 9, 1-(4-Chloro-phenyl)-4-(3-methyl-[1,2,4]triazol-1-ylmethyl)-1H-[1,2,3]triazole] | 46.9
> 10 | Clc1ccc(-n2cc(Cn3nc(C4CC4)nc3C3CC3)nn2)cc1 [Example 10, 1-(4-Chloro-phenyl)-4-(3,5-dicyclopropyl-[1,2,4]triazol-1-ylmethyl)-1-[1,2,3]triazole] | 0.0039
> 1 | Clc1ccc(-n2cc(Cn3ncnc3C3CCC3)nn2)cc1 [Example 11, 1-(4-Chloro-phenyl)-4-(5-cyclobutyl-[1,2,4]triazol-1-ylmethyl)-1H-[1,2,3]triazole] | > 100
> 10 | Clc1ccc(-n2cc(Cn3cnc(C4CCC4)n3)nn2)cc1 [Example 12, 1-(4-Chloro-phenyl)-4-(3-cyclobutyl-[1,2,4]triazol-1-ylmethyl)-1H-[1,2,3]triazole] | 11.8
> 10 | Clc1ccc(-n2cc(Cn3cnc(C4CC4)n3)nn2)cc1 [Example 13, 1-(4-Chloro-phenyl)-4-(3-cyclopropyl-[1,2,4]triazol-1-ylmethyl)-1H-[1,2,3]triazole] | 45.1
> 10 | Clc1ccc(-n2cc(Cn3cnc(C4CCCC4)n3)nn2)cc1 [Example 15, 1-(4-Chloro-phenyl)-4-(3-cyclopentyl-[1,2,4]triazol-1-ylmethyl)-1H-[1,2,3]triazole] | 87.9
> 10 | Clc1ccc(-n2cc(Cn3ncnc3C3CC3)nn2)cc1 [Example 16, 1-(4-Chloro-phenyl)-4-(5-cyclopropyl-[1,2,4]triazol-1-ylmethyl)-1H-[1,2,3]triazole] | > 100
> 10 | Cc1nc(C2CCC2)nn1Cc1cn(-c2ccc(Cl)cc2)nn1 [Example 22, 1-(4-Chloro-phenyl)-4-(3-cyclobutyl-5-methyl-[1,2,4]triazol-1-ylmethyl)-1H-[1,2,3]triazole] | –

Continued, molecule first:

Compound | IC50 (rat NR1/NR2B receptor) [µM] | IC50 (hERG-receptor) [µM]
Cc1nc(C)n(Cc2cn(-c3ccc(Cl)cc3)nn2)n1 [Example 1, 1-(4-Chloro-phenyl)-4-(3,5-dimethyl-[1,2,4]triazol-1-ylmethyl)-1H-[1,2,3]triazole] | > 10 | 419
CCCc1ncnn1Cc1cn(-c2ccc(Cl)cc2)nn1 [Example 2, 1-(4-Chloro-phenyl)-4-(5-propyl-[1,2,4]triazol-1-ylmethyl)-1H-[1,2,3]triazole] | > 1 | 0.032
CCc1ncnn1Cc1cn(-c2ccc(Cl)cc2)nn1 [Example 5, 1-(4-Chloro-phenyl)-4-(5-ethyl-[1,2,4]triazol-1-ylmethyl)-1H-[1,2,3]triazole] | > 10 | 194
CC(C)c1ncnn1Cc1cn(-c2ccc(Cl)cc2)nn1 [Example 7, 1-(4-Chloro-phenyl)-4-(5-isopropyl-[1,2,4]triazol-1-ylmethyl)-1H-[1,2,3]triazole] | > 10 | > 100
FC(F)(F)c1ncn(Cc2cn(-c3ccc(Cl)cc3)nn2)n1 [Example 17, 1-(4-Chloro-phenyl)-4-(3-trifluoromethyl-[1,2,4]triazol-1-ylmethyl)-1H-[1,2,3]triazole] | > 10 | 25.6
CC(C)(C)c1ncnn1Cc1cn(-c2ccc(Cl)cc2)nn1 [Example 19, 4-(5-tert-Butyl-[1,2,4]triazol-1-ylmethyl)-1-(4-chloro-phenyl)-1H-[1,2,3]triazole] | > 10 | 33.8
CC(C)(C)c1ncn(Cc2cn(-c3ccc(Cl)cc3)nn2)n1 [Example 20, 4-(3-tert-Butyl-[1,2,4]triazol-1-ylmethyl)-1-(4-chloro-phenyl)-1H-[1,2,3]triazole] | > 10 | 35.6
Clc1ccc(-n2cc(Cn3ccnc3Cl)nn2)cc1 [Example 26, 4-(2-Chloro-imidazol-1-ylmethyl)-1-(4-chloro-phenyl)-1H-[1,2,3]triazole] | – | 12.1
CC(C)(C)c1nccn1Cc1cn(-c2ccc(Cl)cc2)nn1 [Example 30, 4-(2-tert-Butyl-imidazol-1-ylmethyl)-1-(4-chloro-phenyl)-1H-[1,2,3]triazole] | – | 3.58
CCCc1nccn1Cc1cn(-c2ccc(F)c(Cl)c2)nn1 [Example 43, 1-(3-Chloro-4-fluoro-phenyl)-4-(2-propyl-imidazol-1-ylmethyl)-1H-[1,2,3]triazole] | – | 2.72
Cc1nc(CO)n(Cc2cn(-c3ccccc3)nn2)n1 [Example 47, 4-(5-Hydroxymethyl-3-methyl-[1,2,4]triazol-1-ylmethyl)-1-phenyl-1H-[1,2,3]triazole] | > 10 | –
Cc1nc(CO)nn1Cc1cn(-c2ccccc2)nn1 [Example 48, 4-(3-Hydroxymethyl-5-methyl-[1,2,4]triazol-1-ylmethyl)-1-phenyl-1H-[1,2,3]triazole] | > 10 | –
Fc1cc(-n2cc(Cn3ccnc3C3CC3)nn2)ccc1Cl [Example 61, 1-(4-Chloro-3-fluoro-phenyl)-4-(2-cyclopropyl-imidazol-1-ylmethyl)-1H-[1,2,3]triazole] | – | 3.62
Cc1cc(-n2cc(Cn3ccnc3C3CC3)nn2)ccc1Cl [Example 65, 1-(4-Chloro-3-methyl-phenyl)-4-(2-cyclopropyl-imidazol-1-ylmethyl)-1H-[1,2,3]triazole] | – | 3.87
CC(C)c1nccn1Cc1cn(-c2cccc(OC(F)(F)F)c2)nn1 [Example 73, 4-(2-Isopropyl-imidazol-1-ylmethyl)-1-(3-trifluoromethoxy-phenyl)-1H-[1,2,3]triazole] | – | 13
CS(=O)(=O)c1cccc(-n2cc(Cn3ccnc3CCO)nn2)c1 [Example 79, 4-[2-(2-Hydroxy-ethyl)-imidazol-1-ylmethyl]-1-(3-methanesulfonyl-phenyl)-1H-[1,2,3]triazole] | – | > 100
CCCCc1nccn1Cc1cn(-c2ccc(F)c(C(F)F)c2)nn1 [Example 86, 1-(3-Difluoromethyl-4-fluoro-phenyl)-4-(2-butyl-imidazol-1-ylmethyl)-1H-[1,2,3]triazole] | – | 3.24
OCCc1nccn1Cc1cn(-c2ccc(Cl)c(OC(F)F)c2)nn1 [Example 98, 1-(4-Chloro-3-difluoromethoxy-phenyl)-4-[2-(2-hydroxy-ethyl)-imidazol-1-ylmethyl]-1H-[1,2,3]triazole] | – | 17.1
